Results published in US8883782B2, “Spiro-tetracyclic ring compounds as beta-secretase modulators and methods of use” (Amgen Inc., priority 2010, dated 2014).
Read-outs that look alike come from different tables or passages of the source.

What was measured:
[1] = tested on: Aβ40 in conditioned medium of cells stably expressing Amyloid Precursor Protein (APP); assay: In vitro BACE cell-based assay (Aβ40 in conditioned medium, sandwich ELISA); conditions: read-out: HEK cell assay
Outline: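 Secreted Aβ40 is captured with pAb40 and detected with biotinylated 6E10, read by europium time-resolved fluorescence. IC50 comes from percent inhibition versus concentration.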

[2] = molecular target: Beta Secretase enzyme (BACE) (Homo sapiens, UniProt P56817); assay: In vitro enzymatic BACE FRET (fluorescence resonance energy transfer) assay; type: biochemical; conditions: average IC50, enzyme assay; read-out: BACE 1 FRET assay
Beta Secretase enzyme (BACE), sequence (P56817 46-501, species assumed): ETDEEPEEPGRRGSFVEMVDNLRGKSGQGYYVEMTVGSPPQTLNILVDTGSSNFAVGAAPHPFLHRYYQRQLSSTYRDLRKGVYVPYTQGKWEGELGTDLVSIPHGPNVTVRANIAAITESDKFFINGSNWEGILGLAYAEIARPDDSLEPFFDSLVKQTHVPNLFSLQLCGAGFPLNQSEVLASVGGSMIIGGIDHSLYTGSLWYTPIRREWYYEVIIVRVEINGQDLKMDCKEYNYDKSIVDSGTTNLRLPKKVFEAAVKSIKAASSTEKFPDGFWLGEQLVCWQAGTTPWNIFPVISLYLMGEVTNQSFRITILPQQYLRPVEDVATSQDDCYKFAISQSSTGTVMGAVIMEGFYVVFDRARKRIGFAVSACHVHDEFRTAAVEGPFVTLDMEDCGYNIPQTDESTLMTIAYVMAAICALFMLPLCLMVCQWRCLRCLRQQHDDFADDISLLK
Outline: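 A peptide bearing a fluorophore and quencher across the cleavage site serves as substrate at 50 nM. Reactions proceed one hour in acidic acetate buffer (0.05 M, pH 4.2) containing 10% DMSO final and 100 uM genapol, then are terminated with Tris and read fluorimetrically.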

[3] = Homo sapiens, HEK293, average IC50
[4] = Homo sapiens, HEK293, average IC50, HEK cells

SMILES	IC50 [1, 3]	IC50 [2]	IC50 [1, 4]	IC50 ([1]; average IC50, HEK cells)
Cc1ccc(Oc2ccc3c(c2)[C@@]2(COC(N)=N2)c2cc(C4=CCOCC4)cc(F)c2O3)nc1 [Example 1064, (4S)-2′-(3,6-dihydro-2H-pyran-4-yl)-4′-fluoro-7′-((5-methyl-2-pyridinyl)oxy)spiro[1,3-oxazole-4,9′-xanthen]-2-amine]	442 nM	21.1 nM	–	–
CC#Cc1cncc(-c2ccc3c(c2)C2(COC(N)=N2)c2cc(C4CCOCC4)nc(F)c2O3)c1 (stereo not shown) [Example 750, 1-fluoro-7-(5-(1-propyn-1-yl)-3-pyridinyl)-3-(tetrahydro-2H-pyran-4-yl)spiro[chromeno[2,3-c]pyridine-5,4′-[1,3]oxazol]-2′-amine]	4 nM	0.7 nM	–	–
NC1=N[C@@]2(CO1)c1cc(-c3cccnc3F)ccc1Oc1c2cc(N2CC[C@H](F)C2)nc1F [Example 917, (5S)-1-fluoro-7-(2-fluoro-3-pyridinyl)-3-((3S)-3-fluoro-1-pyrrolidinyl)spiro[chromeno[2,3-c]pyridine-5,4′-[1,3]oxazol]-2′-amine]	–	0.3 nM	5 nM	–
NC1=N[C@@]2(CO1)c1cc(-c3cccnc3F)ccc1Oc1cnc(-c3ccncc3F)cc12 [Example 572, (5S)-7-(2-fluoro-3-pyridinyl)-3-(3-fluoro-4-pyridinyl)spiro[chromeno[2,3-c]pyridine-5,4′-[1,3]oxazol]-2′-amine]	–	11.8 nM	148 nM	–
NC1=N[C@@]2(CO1)c1cc(-c3cccnc3)ccc1Oc1c2cc(-c2cccnc2)nc1F [Example 494, (5S)-1-fluoro-3,7-di-3-pyridinylspiro[chromeno[2,3-c]pyridine-5,4′-[1,3]oxazol]-2′-amine]	–	0.5 nM	5.3 nM	–
NC1=N[C@@]2(CO1)c1cc(-c3cccnc3F)ccc1Oc1c(F)cc(OCCF)cc12 [Example 1043, (4S)-4′-fluoro-2′-(2-fluoroethoxy)-7′-(2-fluoro-3-pyridinyl)spiro[1,3-oxazole-4,9′-xanthen]-2-amine]	57 nM	1 nM	–	–
NC1=NC2(CO1)c1cc(-c3cccnc3F)ccc1Oc1nc(F)c(-c3cccnc3F)cc12 (stereo not shown) [Example 147, 2-fluoro-3,7-bis(2-fluoro-3-pyridinyl)spiro[chromeno[2,3-b]pyridine-5,4′-[1,3]oxazol]-2′-amine]	124 nM	22.3 nM	–	–
CC(C)(C#N)COc1cc(F)c2c(c1)[C@]1(COC(N)=N1)c1cc(-c3cnccc3F)ccc1O2 [Example 605, 3-(((4S)-2-amino-4′-fluoro-7′-(4-fluoro-3-pyridinyl)spiro[1,3-oxazole-4,9′-xanthen]-2′-yl)oxy)-2,2-dimethylpropanenitrile]	–	0.8 nM	10 nM	–
COC(C)(C)COc1cnc2c(c1)[C@]1(COC(N)=N1)c1cc(-c3cc(Cl)ccc3F)ccc1O2 [Example 319, (5S)-7-(5-chloro-2-fluorophenyl)-3-(2-methoxy-2-methylpropoxy)spiro[chromeno[2,3-b]pyridine-5,4′-[1,3]oxazol]-2′-amine]	5.3 nM	0.7 nM	–	–
NC1=N[C@@]2(CS1)c1cc(-c3cccnc3F)ccc1Oc1cnc(N3CC[C@@H](F)C3)cc12 [Example 929, (5S)-7-(2-fluoro-3-pyridinyl)-3-((3R)-3-fluoro-1-pyrrolidinyl)spiro[chromeno[2,3-c]pyridine-5,4′-[1,3]thiazol]-2′-amine]	–	0.3 nM	3 nM	–
NC1=N[C@@]2(CO1)c1cc(-c3cccnc3F)c(F)cc1Oc1ncc(-c3ccc(F)nc3)cc12 [Example 896, (5S)-8-fluoro-7-(2-fluoro-3-pyridinyl)-3-(6-fluoro-3-pyridinyl)spiro[chromeno[2,3-b]pyridine-5,4′-[1,3]oxazol]-2′-amine]	–	2.4 nM	74 nM	–
COC(C)(C)COc1cnc2c(c1)[C@]1(COC(N)=N1)c1cc(-c3cccc(F)c3F)ccc1O2 [Example 315, (5S)-7-(2,3-difluorophenyl)-3-(2-methoxy-2-methylpropoxy)spiro[chromeno[2,3-b]pyridine-5,4′-[1,3]oxazol]-2′-amine]	31.7 nM	5.2 nM	–	–
COc1ccc2c(c1)[C@@]1(COC(N)=N1)c1cc(C3(F)COC3)cc(F)c1O2 [Example 709, (S)-4′-fluoro-2′-(3-fluorooxetan-3-yl)-7′-methoxy-5H-spiro[oxazole-4,9′-xanthen]-2-amine]	–	4560 nM	≥ 10000 nM	–
NC1=N[C@]2(CS1)c1cc(-c3cccnc3F)ccc1Oc1c2cc(C2=CCOCC2)nc1F [Example 998, (5R)-3-(3,6-dihydro-2H-pyran-4-yl)-1-fluoro-7-(2-fluoro-3-pyridinyl)spiro[chromeno[2,3-c]pyridine-5,4′-[1,3]thiazol]-2′-amine]	218 nM	13.5 nM	–	–
NC1=N[C@@]2(CS1)c1cc(-c3cccnc3F)ccc1Oc1c(F)cc(N3CCOCC3)cc12 [Example 1069, (4S)-4′-fluoro-7′-(2-fluoro-3-pyridinyl)-2′-(4-morpholinyl)spiro[1,3-thiazole-4,9′-xanthen]-2-amine]	10 nM	0.6 nM	–	–
NC1=N[C@@]2(CO1)c1cc(-c3cncc(F)c3)ccc1Oc1c(F)cc(C3=CCCOC3)cc12 [Example 278, (4S)-2′-(5,6-dihydro-2H-pyran-3-yl)-4′-fluoro-7′-(5-fluoro-3-pyridinyl)spiro[1,3-oxazole-4,9′-xanthen]-2-amine]	3.9 nM	0.4 nM	–	–
CCn1cc(-c2cccc(-c3ccc4c(c3)[C@@]3(COC(N)=N3)c3cc(C5=CCOCC5)ncc3O4)c2)cn1 [Example 244, (5S)-3-(3,6-dihydro-2H-pyran-4-yl)-7-(3-(1-ethyl-1H-pyrazol-4-yl)phenyl)spiro[chromeno[2,3-c]pyridine-5,4′-[1,3]oxazol]-2′-amine]	326 nM	53.7 nM	–	–
NC1=N[C@@]2(CO1)c1cc(-c3ccccc3)ccc1Oc1c(F)cc(-c3cccnn3)cc12 [Example 559, (4S)-4′-fluoro-7′-phenyl-2′-(3-pyridazinyl)spiro[1,3-oxazole-4,9′-xanthen]-2-amine]	–	12.2 nM	151 nM	–
Cn1cc(-c2cc(F)c3c(c2)[C@]2(COC(N)=N2)c2cc(-c4c(F)ccnc4F)ccc2O3)cn1 [Example 859, (4S)-7′-(2,4-difluoro-3-pyridinyl)-4′-fluoro-2′-(1-methyl-1H-pyrazol-4-yl)spiro[1,3-oxazole-4,9′-xanthen]-2-amine]	–	0.5 nM	11 nM	–
CC(C)(O)C#Cc1cc(F)c2c(c1)[C@]1(COC(N)=N1)c1cc(-c3cccnc3F)ccc1O2 [Example 199, 4-((4S)-2-amino-4′-fluoro-7′-(2-fluoro-3-pyridinyl)spiro[1,3-oxazole-4,9′-xanthen]-2′-yl)-2-methyl-3-butyn-2-ol]	5.1 nM	0.8 nM	–	–
NC1=N[C@@]2(CO1)c1cc(-c3cccnc3F)ccc1Oc1c(F)cc(-c3ccnc(F)c3)cc12 [Example 451, (4S)-4′-fluoro-7′-(2-fluoro-3-pyridinyl)-2′-(2-fluoro-4-pyridinyl)spiro[1,3-oxazole-4,9′-xanthen]-2-amine]	–	0.5 nM	10.3 nM	–
CC#Cc1cnc(F)c(-c2ccc3c(c2)[C@@]2(COC(N)=N2)c2cc(C#CC4(C)COC4)cnc2O3)c1 [Example 955, (5S)-7-(2-fluoro-5-(1-propyn-1-yl)-3-pyridinyl)-3-((3-methyl-3-oxetanyl)ethynyl)spiro[chromeno[2,3-b]pyridine-5,4′-[1,3]oxazol]-2′-amine]	–	0.5 nM	2 nM	–
NC1=N[C@@]2(CO1)c1cc(I)ccc1Oc1ncc(Br)cc12 [Example 1016, (5S)-3-bromo-7-iodospiro[chromeno[2,3-b]pyridine-5,4′-[1,3]oxazol]-2′-amine]	12 nM	0.7 nM	–	–
NC1=N[C@]2(CO1)c1cc(-c3cccnc3F)ccc1Oc1nc(F)c(N3CCOCC3)cc12 [Example 904, (5R)-2-fluoro-7-(2-fluoro-3-pyridinyl)-3-(4-morpholinyl)spiro[chromeno[2,3-b]pyridine-5,4′-[1,3]oxazol]-2′-amine]	–	269 nM	≥ 10000 nM	–
NC1=N[C@@]2(CO1)c1cc(-c3c(F)ccnc3F)ccc1Oc1cnc([C@H]3CCCOC3)cc12 [Example 913, (5S)-7-(2,4-difluoro-3-pyridinyl)-3-((3R)-tetrahydro-2H-pyran-3-yl)spiro[chromeno[2,3-c]pyridine-5,4′-[1,3]oxazol]-2′-amine]	–	16.1 nM	211 nM	–
Cc1cc(-c2ccc3c(c2)[C@@]2(COC(N)=N2)c2cc(C4=CCOCC4)ncc2O3)ccc1F [Example 551, (5S)-3-(3,6-dihydro-2H-pyran-4-yl)-7-(4-fluoro-3-methylphenyl)spiro[chromeno[2,3-c]pyridine-5,4′-[1,3]oxazol]-2′-amine]	–	3.4 nM	80.7 nM	–
COc1ncccc1-c1ccc2c(c1)[C@@]1(COC(N)=N1)c1cc(N3CCC(F)(F)CC3)nc(OC)c1O2 [Example 852, (5S)-3-(4,4-difluoro-1-piperidinyl)-1-methoxy-7-(2-methoxy-3-pyridinyl)spiro[chromeno[2,3-c]pyridine-5,4′-[1,3]oxazol]-2′-amine]	–	92.6 nM	609 nM	–
Cc1ccnc(Oc2ccc3c(c2)[C@@]2(COC(N)=N2)c2cc(C4=CCOCC4)cc(F)c2O3)c1 [Example 1065, (4S)-2′-(3,6-dihydro-2H-pyran-4-yl)-4′-fluoro-7′-((4-methyl-2-pyridinyl)oxy)spiro[1,3-oxazole-4,9′-xanthen]-2-amine]	1480 nM	37.7 nM	–	–
CC(C)(C)COc1ccc2c(c1)[C@@]1(COC(N)=N1)c1cc(C3=CCOC(C)(C)C3)cnc1O2 [Example 507, (5S)-3-(2,2-dimethyl-3,6-dihydro-2H-pyran-4-yl)-7-(2,2-dimethylpropoxy)spiro[chromeno[2,3-b]pyridine-5,4′-[1,3]oxazol]-2′-amine]	–	5.6 nM	–	31 nM
